“And” between values parts separate entries of the source, which are not always exact repeats. Equal entries are not always repeated. Blank lines part the entries; values can stand above or below the molecule they belong to.
Columns and labels:
[1] = test system: Jurkat cells; assay: caspase activity in Jurkat cells induced to undergo apoptosis with anti-FAS antibody (Example 4); type: cell-based; conditions: for sensitivity greater than the Arg-Rho110: Jurkat cells, FIG. 11
Description: The DEVD-aminoluciferin caspase substrate and the DEVD-Rho-110 caspase substrate were used to measure caspase activity in Jurkat cells induced to undergo apoptosis with anti-FAS antibody. DEVD-luciferin and luciferase were prepared for pre-incubation prior to use in the assay. Substrate, ATP, MgSO4, prionex and luciferase were diluted from the same stock as in Example 3 to the same 2× concentration, except that the components were diluted in autoclaved water rather than Apo-ONE™. This mixture was incubated overnight in the dark (covered in foil).
The next day, Jurkat cells, grown in RPMI-1640 media with 10% Fetal Bovine Serum (FBS) to a density of 5×10^5 cells/ml, were treated with anti-FAS antibody. To one vial of 8 ml of media was added 1.6 μl of antibody (1:5000 dilution); a second vial contained 8 ml of media and no antibody. Cells were incubated for 4 hours at 37° C., in 5% CO2 Cells were then centrifuged and resuspended in 12.5 ml of RPMI-1640 to a density of 3.2×10^5 cells/ml, then diluted 1:1 with Apo-ONE™ buffer for 1.6×10^5 cells/ml, or 8,000 per 50 μl.
Two 96-well plates were prepared such that on each, the first column was left empty, and 50 μl of RPMI-1640:Apo-ONE™ solution was placed in each of the remaining wells. To the first four rows of each plate, […] of the “induced” cell solution (8,000 cells) was added and the cells then serially diluted from 8,000 cells/well, to 4,000 cells/well and so on, down to 7.8 cells/well. The twelfth column was left without cells and with only 50 μl of RPMI-1640:Apo-ONE™ solution. […]
Signal to noise was calculated (signal minus background (no cell control)/S.D. of background) and the limit of detection was determined as 3 S.D. above the background noise.
One of the two plates was treated with 50 μl of either DEVD-aminoluciferin/luciferase mix or with DEVD-Rho-110/Apo-ONE™ (Promega G778B and G777B). Each plate was mixed on a plate shaker for 30 seconds then incubated at room temperature and read on either a Dynex luminometer or Fluoroskan plate reader at 1 hour, 2 hours, 4 hours and one day later.

[2] = target: T1, caspase 3 (Homo sapiens, UniProt P42574); assay: caspase titration, luminescent vs fluorescent substrate in Apo-ONE buffer (Example 3); type: biochemical
T1 construct: approximately 10 mU/ng protein with >75% in active conformation; purchased Upstate Biotech 14-264
T1 sequence (P42574 29-175 limits assumed): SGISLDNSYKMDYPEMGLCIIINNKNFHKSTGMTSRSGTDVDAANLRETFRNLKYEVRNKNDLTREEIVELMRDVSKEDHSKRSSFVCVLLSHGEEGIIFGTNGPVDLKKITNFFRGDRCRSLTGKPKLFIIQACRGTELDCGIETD
T1 sequence (P42574 176-277 limits assumed): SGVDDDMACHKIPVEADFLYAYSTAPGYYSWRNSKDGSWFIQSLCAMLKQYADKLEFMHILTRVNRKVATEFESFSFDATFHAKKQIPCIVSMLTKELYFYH
Description: To conduct a direct comparison between luminescent and fluorescent substrates for caspase 3, DEVD-Rho-110 and DEVD-aminoluciferin were employed. The DEVD-aminoluciferin substrate/luciferase/ATP mixture was prepared first and preincubated prior to the enzyme assay to eliminate free aminoluciferin. To 1.25 ml of Apo-ONE™ buffer (Promega) was added 10 μl of DEVD-luciferin (10 mM stock), 10 μl of ATP (0.1 M stock), 50 μl of MgSO4 (1 M stock), 50 μl of prionex (10% stock), and 48 μl of luciferase (5.2 mg/ml stock). The volume was brought up to 2.5 ml with nanopure, autoclaved water to make a 2× stock of 40 μM DEVD-luciferin, 400 μM ATP, 0.2% prionex, and 100 μg/ml luciferase. This stock was incubated overnight at room temperature.
Caspase (Upstate Biotech, Cat. No.14-264; approximately 10 mU/ng protein with >75% in active conformation) was diluted 550 fold in a 50/50 mixture of Apo-ONE™ buffer/RPMI-1640 culture media, from 1 U/μl to 1.8 mU/μl. 50 μl of Apo-One™ buffer/RPMI-1640 media was added to each well in two 96-well plates. Then, 5.5 μl of the caspase stock was added to the 50 μL of Apo-One™ buffer/RPMI-1640 media for a concentration of about 10 mU/50 μl. Ten serial dilutions of 10 fold each were carried out in the wells by serially transferring 5.5 μl of caspase solution into the 50 μl of the buffer/media mix. The final caspase concentrations were 10 mU, 1 mU, 0.1 mU, 0.01 mU, 0.001 mU, 0.1 μU, 0.01 μU, 0.001 μU, 0.1 nU, and 0.01 nU/well. The last two columns were buffer/media only without caspase.
To one plate of caspase dilutions, 50 μl of the DEVD-aminoluciferin substrate mixture was added to each well for final concentrations of 20 μM DEVD-aminoluciferin, 200 μM ATP, 10 mM MgSO4, 0.1% prionex, and 50 μg/ml luciferase. […] Readings were taken for each plate at 1 hour, 3 hours, and 5 hours on a luminometer and fluorimeter, respectively.
Signal to noise was calculated as above and the limit of detection was determined as 3 S.D. above the background noise.

[3] = target: T2, trypsin (Bos taurus, UniProt P00760); assay: trypsin titration, homogeneous luminescent vs fluorescent substrate assay (Examples 1 and 2); type: biochemical; conditions: for limit of detection (trypsin): 3 S.D. above background noise, amount of trypsin
T2 construct: gene PRSS1
T2 sequence (P00760 24-246): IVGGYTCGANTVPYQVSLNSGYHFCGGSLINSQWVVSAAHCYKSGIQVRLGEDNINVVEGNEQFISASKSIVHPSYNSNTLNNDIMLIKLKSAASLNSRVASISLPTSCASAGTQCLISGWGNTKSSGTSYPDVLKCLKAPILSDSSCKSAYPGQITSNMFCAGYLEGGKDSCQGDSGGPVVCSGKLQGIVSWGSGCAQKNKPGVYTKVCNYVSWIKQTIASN
Description: To compare the limit of detection for a luminescence-based and a fluorescence-based assay for trypsin, two substrates, Lys-aminoluciferin (Cbz-modified lysinyl-aminoluciferin) and Arg-Rho-110 (Molecular Probes, Catalog no. R6501), were used. Substrate was resuspended in 100 mM Hepes, pH 7.9, at a concentration of 10 mM and stored at −20° C. The thawed Lys-aminoluciferin substrate, thermostable luciferase (5.2 mg/ml stock), and ATP (0.1 M stock) were diluted in buffer (50 mM HEPES, pH 7.9, 10 mM MgSO4, 1 mM EDTA, pH 8.2 and 0.1% prionex) to make a stock that was 10× the final concentration. The 10× stock was 200 μM Lys-aminoluciferin, 200 μg/ml luciferase, and 2.0 mM ATP. This 10× stock was incubated for at least 90 minutes to eliminate any free aminoluciferin.
Trypsin was prepared for titration as follows: 1 μg/μl stock solution was diluted to 10 ng/50 μl in the same buffer as above (50 mM HEPES, pH 7.9, 10 mM MgSO4, 1 mM EDTA, pH 8.2 and 0.1% prionex). This […] trypsin solution was serially diluted 5 fold to 2 ng, 0.4 ng, 0.08 ng, 0.016 ng, 3.2 pg, 0.64 pg, 0.128 pg, 0.0256 pg and 0.005 pg. The trypsin dilutions were added to two 96-well plates in replicates of 8 at 50 μl per well. Pipette tips were changed for each row to avoid enzyme carryover. Two columns (16 wells) contained buffer only without trypsin.
One of the two plates of the trypsin dilutions was then used to test the Lys-aminoluciferin substrate (FIG. 3). Samples were tested in quadruplicate. The 10× substrate/luciferase/ATP mix was further diluted 5 fold in the above-described buffer to make a 2× stock. 50 μl of this 2× stock was added to each well containing 50 μl of the trypsin titration such that the final 100 μl volume contained 20 μM Lys-aminoluciferin, 200 μM ATP, and 20 μg/ml of thermostable luciferase in buffer (50 mM HEPES, pH 7.9, 10 mM MgSO4, 1 mM EDTA, pH 8.2 and 0.1% prionex). The substrate mix was also added to 12 of the 16 wells containing buffer only without trypsin. The remaining 4 wells were left with buffer only (no substrate mix). This plate was incubated at room temperature and read by luminometer at 45 minutes and 3 hours after adding the substrate mix to the trypsin.
The second plate of trypsin dilutions was used to test the Arg-Rho-110 substrate (FIG. 4). The Arg-Rho-110 substrate was tested at final concentrations of 10 μM and 2.5 μM. 2× stocks of 20 μM and 5 μM were prepared by diluting the substrate in 50 mM HEPES, pH 7.9, 10 mM MgSO4, 1 mM EDTA, pH 8.2 and 0.1% prionex. To each well of the plate containing 50 μl of the trypsin titration was added 50 μl of either the 20 μM or 5 μM 2× stocks of Arg-Rho-110 substrate. The 20 μM stock was added to the first four rows (final concentration of 10 μM in rows A-D) and the 5 μM stock was added to the second four rows (final concentration of 2.5 μM in rows E-H). The substrate mix was also added to 12 of the 16 wells containing buffer only without trypsin. The remaining 4 wells were left with buffer only (no substrate mix). The Arg-Rho-110 plate was incubated at room temperature in the dark for 4.5 hours and read on a fluorimeter.
The signal to noise was calculated as signal-background (no trypsin)/S.D. of background. The limit of detection was determined as 3 S.D. above background noise.
To determine the effect of an overnight pre-incubation of substrate with luciferase, ATP and buffer prior to adding trypsin, a substrate/luciferase/ATP mix was incubated overnight in the dark, at room temperature. […]

[4] = test system: thermostable firefly luciferase; assay: luminescent reaction with luciferin or aminoluciferin as luciferase substrate (FIG. 1); type: biochemical; conditions: substrate for thermostable firefly luciferase, FIG. 1
Description: FIG. 1 depicts relative light units (RLU) for luciferin or aminoluciferin as a substrate for a thermostable firefly luciferase in a luminescent reaction.

- more sensitive than DEVD-Rho-110 ([2]; FIG. 10, Example 3): 10-100 times
- sensitivity greater than the Arg-Rho110 ([2]; depending on the time of the readings, FIG. 10): 50-300 fold
- limit of detection (purified caspase) ([2]; substrate for caspase 3 and 7, purified caspase, 3 S.D. above background): 0.2 to 0.5 μU
Molecule: N-(Z-Asp-Glu-Val-Asp)-aminoluciferin [DEVD-aminoluciferin]
- sensitivity greater than the Arg-Rho110 ([1]; 1 hour time point): 10 fold
- sensitivity greater than the Arg-Rho110 ([1]; at 4 hours): about 2 fold
- limit of detection of caspase expressing cells ([1]; at 1 hour): 15 cells

- limit of detection (trypsin) [3]: 12 to 30 pg
- limit of detection (trypsin) ([3]; listed as arginine2-rhodamine-110): 12 to 30 pg
Molecule: N=C(N)NCCCC(NC(=O)OCc1ccccc1)C(=O)Nc1ccc2c(c1)Oc1cc(NC(=O)C(CCCNC(=N)N)NC(=O)OCc3ccccc3)ccc1C21OC(=O)c2ccccc21 (stereo not drawn) [Arg-Rho-110, reference compound]

- Km [4]: ~0.6 µM
Molecule: O=C(O)[C@H]1CSC(c2nc3ccc(O)cc3s2)=N1 [luciferin]

- limit of detection (trypsin) [3]: 3.0 pg
- sensitivity greater than Arg-Rho-110 ([3]; depending on the time of the reading, FIG. 9): 3-10 fold and 3 to 10 fold
- less enzyme detected / more sensitive than fluorescence-based assay ([3]; luminescent vs rhodamine-110 trypsin substrate): 4-10 times
Molecule: Cbz-modified lysinyl-aminoluciferin [Lys-aminoluciferin]

Source: US7384758B2, “Bioluminescent protease assay with modified aminoluciferin or derivatives thereof” (Promeaga Corporation, priority 2002, dated 2008)
